Series [1] is described as follows: Log P of GRAS amphiphiles. The class given is physicochemical. The following applies: GRAS amphiphile alone. An excerpt:
(log P is the partition coefficient of a molecule between an aqueous and lipophilic phases, usually octanol and water; commonly used as a measure of lipophilicity of a compound.)

Series [2] can be described thus: In vitro release of L-006235 from SP and SP-DOTAP hydrogel (dialysis, HPLC). The format is physicochemical. The settings on record: from hydrogel in PBS at 37° C.; in 7 days. Here is the method: SP-DOTAP gel was assayed for its ability to retain the encapsulated Cathepsin-K inhibitor, L-006235, loaded at 10% (w/w). In vitro release of L-006235 from SP-only hydrogel and from SP-DOTAP hydrogel was evaluated in PBS at 37° C. Drug-loaded hydrogels (200 μL, 10 mg drug/mL) further suspended in PBS (800 μl) were placed in dialysis tubing (8-10 kD molecular weight cut-off, Spectrum Labs). The dialysis bags filled with hydrogel in the suspension medium were placed in a 40 mL sink medium (PBS), and incubated at 37° C. with a shaking speed of 150 rpm. At each time point, an aliquot (1 ml) from the sink medium was removed and replenished with the same volume of fresh PBS to ensure constant sink conditions. Aliquots were lyophilized and dissolved in 250 μL methanol, followed by high performance liquid chromatography (HPLC) analysis of the drug amount.

From patent publication US10568840B2, “Self assembled gels for controlled delivery of encapsulated agents to cartilage” (The Brigham and Women's Hospital, Inc., priority 2016, dated 2020) come the findings set out here.

Regarding `CCCCCCCCCCCCCCCC(=O)OC[C@H](O)[C@H]1OC(=O)C(O)=C1O` [AP, ascorbyl palmitate], the logP (commonly a log measure of how a compound divides between an organic and an aqueous phase) in series [1] (aqueous and lipophilic phases, usually octanol and water, Table 1) stood at 4.62. With `CN1CCN(c2nc(-c3ccc(C(=O)NC4(C(=O)NCC#N)CCCCC4)cc3)cs2)CC1` [L-006235], the “cumulative release of L-006235” value in series [2] is “less than 10%”. Turning to sucrose palmitate [SP], the “Log P” value in series [1] (Table 1) and in series [1] (Table 2) was 0.64 in each case. sucrose stearate [SS]: in series [1] (Table 1), the Log P (in general, the decadic logarithm of the partition coefficient of the neutral form, usually between octanol and water) is 1.416. For triglycerol monostearate [TG18], the “Log P” value in series [1] (Table 1) and in series [1] (Table 2) was 3.899 each time.
